No end group written: not given here.
How the values were obtained:
[1] = tested on: E. coli JJ2487; type: cell-based; conditions: JJ2487, 1 h
[2] = tested on: E. coli O157:H7; type: cell-based; conditions: O157:H7, 1 h
[3] = tested on: E. coli J2210; type: cell-based; conditions: J2210, 1 h
[4] = tested on: E. coli MC1061; type: cell-based; conditions: MC1061, 1 h
[5] = tested on: Salmonella MH91989; type: cell-based, Salmonella enterica serovar Enteritidis; conditions: 1 h
[6] = tested on: Salmonella SL1344; type: cell-based, Salmonella enterica serovar Typhimurium; conditions: 1 h
[7] = tested on: E. coli JW0013; type: cell-based; conditions: for MIC E. coli JW0013: JW0013, 1 h; for MIC in 20% M9 / MIC in 20% MHB / MIC in 60% M9 / MIC in 60% MHB / MIC in 100% M9 / MIC in 100% MHB: JW0013, 6 h
[8] = cited from earlier work

Substance | MIC E. coli JJ2487 [1] | MIC E. coli O157:H7 [2] | MIC E. coli J2210 [3] | MIC E. coli MC1061 [4] | MIC Salmonella MH91989 [5] | MIC Salmonella SL1344 [6] | MIC E. coli JW0013 [7] | MIC in 20% M9 [7] | MIC in 20% MHB [7] | MIC in 60% M9 [7] | MIC in 60% MHB [7] | MIC in 100% M9 [7] | MIC in 100% MHB [7] | antimicrobial activity compared to Onc18 [8]
VDKKPYRPRPRPPRRIYNR-NH2 [VDKKPYRPRPRPPRRIYNR-NH2] | 0.30 ± 0.07 µg/mL | 1.57 ± 0.68 µg/mL | 0.30 ± 0.07 µg/mL | 0.15 ± 0.03 µg/mL | 0.39 ± 0.18 µg/mL | 0.39 ± 0.18 µg/mL | 0.39 ± 0.18 µg/mL | 0.39 ± 0.18 µg/mL | 0.20 ± 0.09 µg/mL | 1.20 ± 0.28 µg/mL | 0.60 ± 0.14 µg/mL | 9.60 ± 2.00 µg/mL | 2.40 ± 0.56 µg/mL | 
VDKRPYLPRPRPPRRIYNR-NH2 [VDKRPYLPRPRPPRRIYNR-NH2] | 0.39 ± 0.18 µg/mL | 2.40 ± 0.56 µg/mL | 0.60 ± 0.14 µg/mL | 0.30 ± 0.07 µg/mL | 0.60 ± 0.14 µg/mL | 0.60 ± 0.14 µg/mL | 0.83 ± 0.42 µg/mL |  |  |  |  |  |  | 
VDKPPYRPRPRPPRRIYNR-NH2 [VDKPPYRPRPRPPRRIYNR-NH2] | 0.39 ± 0.18 µg/mL | 2.40 ± 0.56 µg/mL | 0.39 ± 0.18 µg/mL | 0.20 ± 0.09 µg/mL | 0.60 ± 0.14 µg/mL | 0.42 ± 0.21 µg/mL | 0.42 ± 0.21 µg/mL |  |  |  |  |  |  | 
VDKKPYKPRPRPPRRIYNR-NH2 [VDKKPYKPRPRPPRRIYNR-NH2] | 0.30 ± 0.07 µg/mL | 1.57 ± 0.68 µg/mL | 0.20 ± 0.09 µg/mL | 0.15 ± 0.03 µg/mL | 0.42 ± 0.21 µg/mL | 0.42 ± 0.21 µg/mL | 0.30 ± 0.07 µg/mL | 0.30 ± 0.09 µg/mL | 0.20 ± 0.09 µg/mL | 1.57 ± 0.68 µg/mL | 0.79 ± 0.35 µg/mL | 9.60 ± 2.00 µg/mL | 2.40 ± 0.56 µg/mL | 
VDKKPYLPRPRPPRRIYNR-NH2 [VDKKPYLPRPRPPRRIYNR-NH2] | 0.60 ± 0.14 µg/mL | 2.40 ± 0.56 µg/mL | 0.39 ± 0.18 µg/mL | 0.30 ± 0.07 µg/mL | 0.60 ± 0.14 µg/mL | 0.60 ± 0.14 µg/mL | 0.60 ± 0.14 µg/mL |  |  |  |  |  |  | 
VDKPPYLPRPRPPROIYNO-NH2 [Onc72] |  |  |  |  |  |  |  |  |  |  |  |  |  | improved
VDKPPYLPRPRPPRrIYNr-NH2 [Onc112] |  |  |  |  |  |  |  |  |  |  |  |  |  | improved
VDKPPYKPRPRPPRRIYNR-NH2 [VDKPPYKPRPRPPRRIYNR-NH2] | 0.79 ± 0.35 µg/mL | 2.40 ± 0.56 µg/mL | 0.30 ± 0.07 µg/mL | 0.15 ± 0.03 µg/mL | 0.60 ± 0.14 µg/mL | 0.60 ± 0.14 µg/mL | 0.60 ± 0.14 µg/mL |  |  |  |  |  |  | 
VDKRPYRPRPRPPRRIYNR-NH2 [VDKRPYRPRPRPPRRIYNR-NH2] | 0.42 ± 0.21 µg/mL | 1.66 ± 0.82 µg/mL | 0.30 ± 0.07 µg/mL | 0.15 ± 0.03 µg/mL | 0.42 ± 0.21 µg/mL | 0.39 ± 0.18 µg/mL | 0.39 ± 0.18 µg/mL |  |  |  |  |  |  | 
VDKPPYLPRPRPPRRIYNR-NH2 [VDKPPYLPRPRPPRRIYNR-NH2, reference compound] | 0.60 ± 0.14 µg/mL | 3.14 ± 1.28 µg/mL | 0.79 ± 0.35 µg/mL | 0.30 ± 0.07 µg/mL | 0.60 ± 0.14 µg/mL | 0.60 ± 0.14 µg/mL | 0.83 ± 0.42 µg/mL | 0.60 ± 0.14 µg/mL | 0.79 ± 0.35 µg/mL | 1.20 ± 0.28 µg/mL | 1.20 ± 0.28 µg/mL | 2.40 ± 0.56 µg/mL | 2.40 ± 0.56 µg/mL | 

— article PMC6519479 (Molecular systems design & engineering, 2018)
